According to patent US20190022257A1, “ULTRAFINE NANOPARTICLES AS AN IMAGING AGENT FOR DIAGNOSING A RENAL DISORDER” (priority 2016, published 2019):
“Also recorded” adds a separate entry of the source.

What was measured:
[1] = tested on: UUO kidney; test: Dynamic MRI measurement of the enhancement in the kidney, UUO mice (Example 3); assay type: in vivo; conditions: DOTAREM 10 mM, Example 1 nanoparticles 5 mM
Procedure: The images were acquired with a 7T 300 MHz spectrometer imager, equipped with a linear 1H radiofrequency coil dedicated to mice (Bruker, Karlsruhe, Germany).
The dynamic MRI studies of capture and release of the nanoparticles in the tissues were carried out in vivo and made it possible to determine the change in enhancement in the kidney.
All the manipulations of the animals were carried out in compliance with the institutional animal protocol guidelines in place at Paris Descartes University, submission CEEA34.JS.142.1 and approved by the Institute's animal research committee, and also the ethics protocols of the company regarding mouse inductions. […]
8-week-old female mice of BalbC/JRJ type (n=6) were UUO-treated at just one kidney, i.e. each mouse comprises one lesioned kidney (UUO kidney) and one healthy kidney (reference kidney). […] The physiological respiratory parameters were measured throughout the MRI studies using a nonmagnetic respiratory sensor system (the company SAM, US) and the body temperature was maintained by heating the cradle to the core. […]
A dynamic contrast enhanced DCE sequence was recorded using a specific sequence eliminating the free artefacts of movement in post treatment with a TR of 100 ms and a TE of 4 ms and a tilt angle of 80° in order to ensure T1 MRI weighting; a field of view (FOV) of 3 cm×3 cm and a final matrix of 256 by 256 points. […]

[2] = tested on: glomerular and tubular renal disorder model induced by injection of anti-gbm antibodies; test: Arterial input function (AIF) by DCE MRI in anti-gbm glomerular and tubular renal disorder model with therapy (Example 6); assay type: in vivo, male CBA mice; conditions: d7 and d14 post-induction, AGuIX 5 mM, DOTAREM 10 mM, 100 μl bolus
Procedure: The high temporal resolution DCE perfusion method with a period 2.5 s for 10 min, with injection of the imaging agent as a 100 μl bolus at […] (method described in Example 4) was applied on another model of glomerular and tubular renal disorder, i.e. model induced by injection of anti-gbm antibodies in the literature.
The DCE MRI acquisition protocol consists in injecting the two types of agents: reference DOTAREM or AGuIX, namely:
solution according to the invention: 100 μl of imaging agent dissolved in a 0.9% saline solution, with a 5 mM concentration of AguIX imaging agent, and
solution according to the prior art: 100 μl of imaging agent dissolved in a 0.9% saline solution, with a 10 mM concentration of DOTAREM imaging agent. […]
An additional parameter corresponding to the arrival of the imaging tracer in the organ, i.e. arterial input function AIF, was also recorded. Measured at the input of the organ studied, the AIF itself at the input of the kidney is an indicator of the functionality. The profile is recorded on the anatomical MRI image at the level of the renal arterial point on the dynamic images acquired at DCE high temporal resolution proposed. […]

[3] = tested on: UUO kidney; test: High temporal resolution DCE perfusion MRI, UUO model (Example 4); assay type: in vivo, female BalbC/JRJ mice; conditions: DOTAREM 10 mM
Procedure: It provides kinetic profiles of signal enhancement corresponding to the immediate arrival of the imaging agent in the tissue, in particular for probing the first glomerular pass.
The UUO model is induced by clamping the right ureter of female BalbC/JRJ mice according to a biochemically characterized protocol from the literature. All the manipulations of the animals were carried out in compliance with the institutional animal protocol guidelines described in Example 3.
8-week-old female mice of BalbC/JRJ type (n=6) were UUO-treated at the level of just one kidney, i.e. each mouse comprises one lesioned kidney (UUO kidney) and one healthy kidney (reference kidney). A batch of sham mice makes it possible to verify the validity of the contralateral reference with the MRI method developed. 2 batches of n=6 mice and n=6 shams were studied by dynamic MRI 3 days after induction.
The DCE MRI acquisition protocol consists in injecting the two types of imaging agents: reference DOTAREM and AGuIX, namely:
Solution according to the invention: 100 μl of imaging agent dissolved in a 0.9% saline solution, with a 5 mM concentration of AGuIX imaging agent.
Prior art solution: 100 μl of imaging agent dissolved in a 0.9% saline solution with 10 mM concentration of DOTAREM imaging agent. • i) The administration protocol is that of Example 3. • ii) The MRI acquisition protocol itself consists in recording sequential images by means of the T1-weighted FLASH MRI sequence (TR=TE=2.2 ms, spatial resolution 117×310 μm^2), temporal resolution 2.5 s for 10 min with 20 s of precontrast. […] T1 mapping in order to verify the concentration of Gd MRI agent is recorded. • iii) The digital processing method derived from method termed 3TP, three time Points, consists in defining 3 main points: basic reference intensity, point of maximum intensity of enhancement, final clearance time, and calculating the slopes of capture and of release of the agent. Next, a Mann-Whitney biostatistical study is applied to the slope parameters calculated for each of the 6 mice, and for each imaging agent.
Averaged collective method resulting in the value of T1max: • a) Searching for the time T corresponding to the maximum in the overall mean of the DCE MRI intensities. • b) Applying this max to each enhancement profile as Tmax. • c) Taking the mean of 6 enhancement values around the indexed value.

CNC[C@H](O)[C@@H](O)[C@H](O)[C@H](O)CO.O=C([O-])CN1CCN(CC(=O)[O-])CCN(CC(=O)O)CCN(CC(=O)[O-])CC1.[Gd+3] [DOTAREM]
discrimination between healthy kidney and lesioned (UUO) kidney by MRI enhancement ([1]; intravenous, 100 μl, UUO mice): cannot discriminate between a healthy kidney and a lesioned kidney; also recorded: does not make it possible to significantly differentiate renal functionality of a healthy kidney and of an obstructed kidney; also recorded: does not make it possible to distinguish a healthy kidney from a kidney suffering from a renal disorder
enhancement profile in the renal cortex, UUO kidney vs reference kidney ([1]; time course by MRI after intravenous administration): enhancement profile is similar between UUO kidney (lesioned kidney) and reference kidney (healthy kidney)
AIF at the kidney input, control (carrier) mice vs MP mice [2]: identical
decrease of DCE MRI signal between healthy and pathological kidney condition ([3]; UUO model, AGuIX 5 mM): 100%
decrease of DCE MRI signal between healthy and pathological kidney condition, as factor ([3]; UUO model, AGuIX 5 mM): 2
discrimination between healthy kidney and lesioned kidney (high time resolution DCE MRI) ([3]; intravenous, Example 1 nanoparticles 5 mM): cannot discriminate between a healthy kidney and a lesioned kidney
enhancement profile in the renal cortex, UUO kidney vs reference kidney (high time resolution DCE MRI, Mann-Whitney improved 3TP) ([3]; intravenous, Example 1 nanoparticles 5 mM, 3 days after induction): enhancement profile is similar between UUO kidney (lesioned kidney) and reference kidney (healthy kidney)
